Assay results as given in the supplement of paper PMC10307832.

How the values were obtained:
Experiment in all cases: relative viability (nuclei count vs DMSO), 5 days (fraction); higher = more cells survive
[1] = compound: C1COCCN1C2=NC(=NC3=C2OC4=C3C=CC=N4)C5=CC(=CC=C5)NC(=O)C6=CN=C(C=C6)N
In short: (§1)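 Viability here means nuclei in treated wells divided by nuclei in vehicle wells, reported as the median across plates. Only plates with control CV below 25% and at least one doubling passed. Lung cancer cell lines in 1536-well plates were exposed to five √10-spaced library-drug doses for 5 days and counted from 4× Hoechst images in MetaXpress.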

SGI-1776 = compound: CN1CCC(CNc2ccc3ncc(-c4cccc(OC(F)(F)F)c4)n3n2)CC1 [SGI-1776]
In short: as §1

Entinostat = compound: Nc1ccccc1NC(=O)c1ccc(CNC(=O)OCc2cccnc2)cc1 [Entinostat]
In short: as §1

SGI-1776 + Dasatinib = compound: CN1CCC(CNc2ccc3ncc(-c4cccc(OC(F)(F)F)c4)n3n2)CC1 [SGI-1776] + Cc1nc(Nc2ncc(C(=O)Nc3c(C)cccc3Cl)s2)cc(N2CCN(CCO)CC2)n1 [Dasatinib] (partner 0.075 µM)
In short: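 The day after seeding in 1536-well plates, lung cancer cell lines were treated by pin tool with a single drug, or with a fixed anchor-drug dose together with five library-drug doses (not always all listed) in √10 steps. After 5 days, a combined fix-and-stain solution (final 0.05% Triton X-100, 1% formaldehyde, 1 ug/ml Hoechst) was added. Nuclei counted on 4× images gave relative viability as treated counts over vehicle counts, reported as the median of duplicate plates.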

Row | Cell Line | relative viability ([1]; 0.02 µM) | relative viability ([1]; 0.06325 µM) | relative viability ([1]; 0.2 µM) | relative viability ([1]; 0.6325 µM) | relative viability ([1]; 2 µM) | relative viability (SGI-1776; 0.08 µM) | relative viability (SGI-1776; 0.8 µM) | relative viability (SGI-1776; 2.53 µM) | relative viability (SGI-1776; 8 µM) | relative viability (Entinostat; 0.02 µM) | relative viability (Entinostat; 0.06325 µM) | relative viability (Entinostat; 0.2 µM) | relative viability (Entinostat; 0.6325 µM) | relative viability (Entinostat; 2 µM) | relative viability (SGI-1776 + Dasatinib; first compound 0.08 µM) | relative viability (SGI-1776 + Dasatinib; first compound 0.8 µM) | relative viability (SGI-1776 + Dasatinib; first compound 2.53 µM) | relative viability (SGI-1776 + Dasatinib; first compound 8 µM)
1 | NCI-H520 | 0.857 | 1.12 | 1.05 | 0.921 | 0.659 | 0.998 | 1.18 | 1 | 0.832 | 1 | 1.07 | 0.934 | 0.9 | 0.792 | 0.279 | 0.221 | 0.153 | 0.131
2 | NCI-H522 | 0.945 | 0.927 | 0.888 | 0.988 | 0.955 | 1.04 | 1.01 | 0.875 | 0.827 | 1.03 | 0.967 | 1.19 | 1.11 | 0.646 | 0.828 | 0.849 | 0.843 | 0.729
3 | NCI-H596 | 0.993 | 1.11 | 0.944 | 0.948 | 0.832 | 0.943 | 1.11 | 0.869 | 0.731 | 1.03 | 0.937 | 0.975 | 0.854 | 0.588 | 0.571 | 0.528 | 0.51 | 0.441
4 | NCI-H647 | 0.862 | 1.02 | 0.905 | 0.867 | 0.546 | 0.988 | 1.09 | 0.839 | 0.544 | 1.05 | 1.04 | 0.897 | 0.462 | 0.165 | 0.188 | 0.184 | 0.111 | 0.117
5 | NCI-H650 | 0.958 | 0.875 | 0.918 | 0.952 | 0.849 | 0.935 | 0.955 | 0.997 | 0.677 | 1.15 | 1.02 | 0.939 | 0.941 | 0.308 | 0.492 | 0.497 | 0.434 | 0.37
6 | NCI-H661 | 0.989 | 1.04 | 0.978 | 1 | 0.813 | 1.02 | 1.04 | 1.06 | 0.974 | 1 | 0.999 | 0.911 | 0.809 | 0.664 | 1 | 0.979 | 0.837 | 0.692
7 | NCI-H727 | 0.973 | 1.1 | 0.878 | 0.9 | 1.02 | 0.976 | 1.02 | 1.01 | 0.852 | 0.892 | 0.895 | 0.887 | 0.614 | 0.545 | 0.4 | 0.426 | 0.351 | 0.356
8 | NCI-H838 | 0.852 | 0.947 | 0.917 | 0.791 | 0.57 | 0.928 | 0.994 | 0.936 | 0.645 | 1.11 | 1.08 | 1.08 | 0.733 | 0.406 | 0.282 | 0.275 | 0.256 | 0.257
9 | NCI-H1355 | 0.967 | 1.04 | 0.998 | 0.959 | 0.888 | 1.01 | 1.06 | 0.994 | 0.888 | 0.975 | 0.918 | 0.823 | 0.638 | 0.523 | 0.778 | 0.722 | 0.52 | 0.604
10 | NCI-H1395 | 0.846 | 0.935 | 0.724 | 0.801 | 0.821 | 1.04 | 1.04 | 0.827 | 0.621 | 1.1 | 1.15 | 0.962 | 0.745 | 0.601 | 0.381 | 0.379 | 0.394 | 0.373
11 | NCI-H1437 | 0.978 | 1 | 0.957 | 0.995 | 0.56 | 1.02 | 1.04 | 0.972 | 0.887 | 0.952 | 0.652 | 0.476 | 0.34 | 0.237 | 0.335 | 0.427 | 0.298 | 0.242
12 | NCI-H1563 | 0.938 | 0.992 | 0.859 | 0.786 | 0.758 | 1 | 1.05 | 0.925 | 0.756 | 0.938 | 0.959 | 0.887 | 0.816 | 0.776 | 0.446 | 0.474 | 0.457 | 0.453
13 | NCI-H1623 | 1.07 | 0.943 | 0.895 | 0.924 | 0.853 | 0.977 | 0.967 | 0.951 | 0.897 | 1 | 0.937 | 0.918 | 0.625 | 0.462 | 0.658 | 0.608 | 0.559 | 0.538
14 | NCI-H1650 | 0.865 | 1.01 | 0.8 | 0.896 | 0.618 | 0.945 | 0.879 | 0.84 | 0.442 | 0.999 | 0.929 | 0.964 | 0.635 | 0.334 | 0.372 | 0.292 | 0.208 | 0.171
